# Target: T1, ASFV topo II ATPase domain (African swine fever virus, UniProt A0A2X0THW2)
# T1 construct: gene P1192R CDS
# Conditions: Mg2+; ATP-binding site; 0.5 mM AMPPNP, 5 mM MgCl2, HEPES pH 7.5
smiles,measurement,value
Nc1ncnc2c1ncn2[C@@H]1O[C@H](COP(=O)(O)OP(=O)(O)NP(=O)(O)O)[C@@H](O)[C@H]1O [AMPPNP],"X-ray crystal structure, 2.20 A",crystal structure of the isolated ATPase domain from ASFV topo II in complex with AMPPNP

# — paper PMC11005426 (mBio, 2024)
